The subject of one series is K-562. Put plainly: cells. The format is cell-based. As to conditions: Homo sapiens, K562; K-562; 10 μM; supplementary table 3a-g; read-out: growth inhibition % (GI %).
In a further series the test system is SR. Kind of series: cells. The format is cell-based. The following applies: Homo sapiens, 10 μM, supplementary table 3a-g, read-out: growth inhibition % (GI %).
Another series relates to HOP-92. Kind of series: cells. As to conditions: Homo sapiens; HOP-92; 10 μM; supplementary table 3a-g; read-out: growth inhibition % (GI %). The format is cell-based.
The next series relates to NCI-H226. Put plainly: cells. In kind it is cell-based. The following applies: Homo sapiens; NCI-H226; 10 μM; supplementary table 3a-g; read-out: growth inhibition % (GI %).
The test system of another series is RXF 393. Put plainly: cells. The format is cell-based. The following applies: Homo sapiens; RXF 393; 10 μM; supplementary table 3a-g; read-out: growth inhibition % (GI %).
Another series concerns UO-31. Put plainly: cells. In kind it is cell-based. As to conditions: Homo sapiens; UO-31; 10 μM; supplementary table 3a-g; read-out: growth inhibition % (GI %).
Series [1] relates to panel of 60 tumour cell lines. Put plainly: NCI 60 cell line antiproliferative screening (SRB), whole panel or subpanels (means, ranges, words). The format is cell-based, human. As to conditions: Homo sapiens, 60 cell, mean over the cell line panel; 10 μM; supplementary table 3a-g; read-out: Mean inhibition.
The subject of a further series is caspase-3. Put plainly: Caspase-3 activation (ELISA) in breast HS 578T cancer cell line. The format is cell-based, human. As to the method: Apoptosis is triggered by the activation of caspases, particularly caspase-3, which is an […] caspase responsible for apoptosis. Therefore, the induction of apoptosis by compound 6d was examined by the evaluation of caspase-3 activation in breast HS 578T cancer cell line. The effect of erlotinib as well as untreated cell line was used as positive and negative control, respectively. […] . […]
incubated for 15 minutes in the dark at room temperature. FacsCalibur was used to assess cell fluorescence after incubation (BD Biosciences, USA). The results were represented using dot-plot graphs.
1.1.5. Caspase-3 enzyme assay
The level of the apoptotic marker caspase-3 was measured using Invitrogen ELISA Kit Catalog # KHO1091. The procedure of the used kit was performed according to the manufacturer’s instructions. Let all components to reach room temperature before use. Gently combine all liquid reagents prior to use. Add 100 μL of the standard diluent buffer to the zero standard wells. Add 100 μL of standards and controls or diluted samples to the appropriate microtiter wells. Incubate for 2 h at room temperature. Pipette 100 μL of Caspase-3 (Active) detection antibody solution into each well. […] Read the absorbance of each well at 450 nm. Read the plate within 2 h after adding the stop solution. […] Read the concentrations for unknown samples and controls from the standard curve.
For orientation: An ELISA detects its analyte on a solid surface through an enzyme-linked reagent.

Broadly, the inhibition is the share of the control response that was lost under treatment. A word on the melting point: it is the temperature, or range, at which the solid turns liquid. Regarding `O=c1c2ccccc2nc(NN=Cc2ccc(Oc3ccc(Cl)cc3)cc2)n1-c1ccccc1` [3a, 2–(2-(4–(4-chlorophenoxy)benzylidene)hydrazinyl)-3-phenylquinazolin-4(3H)-one], the melting point is 158 to 164 °C. Besides, in the series on K-562, the inhibition at 10 µM is under 15%. The inhibition at 10 µM with SR was under 15%. In addition, the inhibition at 10 µM with HOP-92 was under 15%. Further, the inhibition at 10 µM in the series with NCI-H226 is under 15%. In addition, the inhibition at 10 µM with RXF 393 was under 15%. Also, the inhibition at 10 µM with UO-31 is under 15%. The inhibition at 10 µM in [1] is under 0%.

Molecule `O=c1c2ccccc2nc(NN=Cc2ccc(Oc3ccc(Br)cc3)cc2)n1-c1ccccc1` [3b, 2–(2-(4–(4-bromophenoxy)benzylidene)hydrazinyl)-3-phenylquinazolin-4(3H)-one] returned a melting point of 198 to 200 °C. Besides, the inhibition at 10 µM in the series on K-562 was under 15%. Moreover, the inhibition at 10 µM with SR was under 15%. Besides, in the series with UO-31, the inhibition at 10 µM is under 15%. Also, the inhibition at 10 µM in series [1] is under 0%.

`COc1ccc(Oc2ccc(C=NNc3nc4ccccc4c(=O)n3-c3ccccc3)cc2)cc1` [3c, 2–(2-(4–(4-methoxyphenoxy)benzylidene)hydrazinyl)-3-phenylquinazolin-4(3H)-one] gave a melting point of 185 to 188 °C. For the same molecule, in the series with K-562, the inhibition at 10 µM turned out to be 24.8%. Moreover, the inhibition at 10 µM in the series with SR stood at 16%. In the series on HOP-92, the inhibition at 10 µM is under 15%. The inhibition at 10 µM in the series on NCI-H226 worked out at 15.2%. In addition, in the series with RXF 393, the inhibition at 10 µM was under 15%. For the same molecule, in the series with UO-31, the inhibition at 10 µM is 21.6%. In series [1], the inhibition at 10 µM is 1.6%.

Take `O=c1c2ccccc2nc(NN=Cc2ccc(Oc3ccc(Cl)cc3)cc2)n1-c1ccc(Cl)cc1` [3d, 2–(2-(4–(4-chlorophenoxy)benzylidene)hydrazinyl)-3–(4-chlorophenyl)quinazolin-4(3H)-one]: the melting point lay within 212 to 214 °C. Besides, the inhibition at 10 µM with K-562 was under 15%. The inhibition at 10 µM with SR is under 15%. Moreover, the inhibition at 10 µM in the series on HOP-92 was under 15%. The inhibition at 10 µM in the series on NCI-H226 is under 15%. In addition, the inhibition at 10 µM in the series with UO-31 is under 15%. The inhibition at 10 µM in [1] is under 0%.

The molecule `O=c1c2ccccc2nc(NN=Cc2ccc(N3CCCCC3)cc2)n1-c1ccccc1` [3e, 3-phenyl-2–(2-(4-(piperidin-1-yl)benzylidene)hydrazinyl)quinazolin-4(3H)-one] returned a melting point of 160 to 166 °C. In the series on K-562, the inhibition at 10 µM is under 15%. Besides, in the series on SR, the inhibition at 10 µM is under 15%. In addition, in the series on HOP-92, the inhibition at 10 µM is under 15%. In addition, the inhibition at 10 µM with NCI-H226 was under 15%. For the same molecule, the inhibition at 10 µM in the series with RXF 393 is under 15%. Further, the inhibition at 10 µM in the series on UO-31 was under 15%. Besides, in series [1], the inhibition at 10 µM was under 0%.

As to `O=c1c2ccccc2nc(NN=Cc2ccc(N3CCOCC3)cc2)n1-c1ccccc1` [3f, 2–(2-(4-morpholinobenzylidene)hydrazinyl)-3-phenylquinazolin-4(3H)-one], the melting point is 242 to 244 °C. In addition, the inhibition at 10 µM in the series on K-562 was under 15%. For the same molecule, in the series on SR, the inhibition at 10 µM was under 15%. The inhibition at 10 µM in the series with HOP-92 is under 15%. Also, in the series with NCI-H226, the inhibition at 10 µM is under 15%. Also, the inhibition at 10 µM with RXF 393 is under 15%. Also, the inhibition at 10 µM in the series on UO-31 was under 15%. Further, the inhibition at 10 µM in [1] is under 0%.

In the case of `CN1CCN(c2ccc(C=NNc3nc4ccccc4c(=O)n3-c3ccccc3)cc2)CC1` [3g, 2–(2-(4–(4-methylpiperazin-1-yl)benzylidene)hydrazinyl)-3-phenylquinazolin-4(3H)-one], the melting point lay within 208 to 210 °C. Moreover, in the series on K-562, the inhibition at 10 µM is under 15%. For the same molecule, in the series on SR, the inhibition at 10 µM was under 15%. In addition, the inhibition at 10 µM with HOP-92 is 16%. For the same molecule, the inhibition at 10 µM in the series with NCI-H226 is under 15%. Besides, the inhibition at 10 µM in the series on RXF 393 turned out to be 25.1%. Moreover, in the series on UO-31, the inhibition at 10 µM stood at 21%. Moreover, the inhibition at 10 µM in series [1] was under 0%.

Regarding `C#Cc1cccc(Nc2ncnc3cc(OCCOC)c(OCCOC)cc23)c1` [Erlotinib, erlotinib, reference compound], in the series on caspase-3, the “increase of caspase-3 level compared to negative control” value worked out at 8.78 fold.

The values above are taken from publication PMC9518264, “Design and synthesis of novel quinazolinone-based derivatives as EGFR inhibitors with antitumor activity” (Journal of Enzyme Inhibition and Medicinal Chemistry, 2022).
